The target of test [1] is T1, glutathione-S-transferase (GST) tagged LXRalpha LBD (ligand binding domain) (Homo sapiens, UniProt Q13133).
T1 construct: purchased Invitrogen pv4655
T1 sequence (Q13133 209-447 limits assumed): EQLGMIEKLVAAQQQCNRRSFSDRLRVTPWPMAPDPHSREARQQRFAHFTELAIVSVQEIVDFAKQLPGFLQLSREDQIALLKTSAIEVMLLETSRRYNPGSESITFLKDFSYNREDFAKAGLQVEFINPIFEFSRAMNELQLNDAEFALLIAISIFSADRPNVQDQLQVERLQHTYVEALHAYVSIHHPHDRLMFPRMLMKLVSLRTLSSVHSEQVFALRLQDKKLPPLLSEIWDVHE
Briefly: LanthaScreen TR-FRET Liver X Receptor Coactivator Assay, co-activator recruitment to LXRalpha LBD. It counts as biochemical. To be noted: for Emax / LXR alpha Activity @ max dose (%): efficacy at max dose, in relation to reference dual agonist T0901317; for Emax: read-out: LXR alpha Activity @ max dose (%); for LXR alpha IP (nM) / EC50: potency (Inflection Point, IP), co-activator recruitment to LXRalpha LBD, in relation to T0901317; for EC50: read-out: LXR alpha IP. The procedure:
(§1) Potency (Inflection Point, IP) and efficacy (Emax) are evaluated via compound-induced co-activator recruitment to glutathione-S-transferase (GST) tagged LXRbeta and LXRalpha LBD (ligand binding domain) proteins in relation to reference dual agonist compound T0901317 (N-(2,2,2-Trifluoroethyl)-N-[4-[2,2,2-trifluoro-1-hydroxy-1-(trifluoromethyl)ethyl] phenyl] benzenesulfonamide) using the LanthaScreen™ TR-FRET Liver X Receptor Coactivator Assays according to manufacturer's instructions (Invitrogen catalog number pv4658.pps and pv4655). While running the LanthaScreen™ TR-FRET Liver X Receptor Coactivator Assay, LXR alpha-LBD or LXR beta-LBD was added to ligand test compounds followed by addition of a mixture of a fluorescein-labelled coactivator peptide and terbium-conjugated anti-GST antibody. After an incubation period at room temperature, TR-FRET (time-resolved fluorescence resonance energy transfer) was measured using a filter-based instrument capable of TR-FRET, e.g. PerkinElmer Envision.
In general terms: Time-resolved FRET reads energy transfer from a long-lived donor to a nearby acceptor.

In test [2] the target is T2, glutathione-S-transferase (GST) tagged LXRbeta LBD (ligand binding domain) (Homo sapiens, UniProt P55055).
T2 construct: purchased Invitrogen pv4658.pps
T2 sequence (P55055 222-460 limits assumed): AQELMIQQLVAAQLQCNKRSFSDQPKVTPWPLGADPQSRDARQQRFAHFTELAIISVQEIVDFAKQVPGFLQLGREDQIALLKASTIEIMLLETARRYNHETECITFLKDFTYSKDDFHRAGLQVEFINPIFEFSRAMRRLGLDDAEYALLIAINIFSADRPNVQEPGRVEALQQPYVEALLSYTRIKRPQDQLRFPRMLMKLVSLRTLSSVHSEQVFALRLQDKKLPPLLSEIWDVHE
As to the kind of experiment: LanthaScreen TR-FRET Liver X Receptor Coactivator Assay, co-activator recruitment to LXRbeta LBD. Format: biochemical. As to conditions: for Emax / LXR beta Activity @ max dose (%): efficacy at max dose, in relation to reference dual agonist T0901317; for Emax: read-out: LXR beta Activity @ max dose (%); for EC50: potency (Inflection Point, IP), co-activator recruitment to LXRbeta LBD, in relation to T0901317, read-out: LXR beta IP. The procedure: as §1

We go through 17 compounds from patent US10752587B2, “Homobispiperidinyl derivatives as liver X receptor beta agonists, compositions and their use” (Merck Sharp & Dohme Corp., priority 2015, dated 2020).

On to `CN(C)C(=O)c1ccc(N2CCC(CC3CCN(C(=O)C4(c5ccccc5)CCCC4)CC3)CC2)cc1Cl` [Example 2-10, 2-chloro-N,N-dimethyl-4-[4-({1-[(1-phenyl-cyclopentyl)carbonyl]piperidin-4-yl}methyl)piperidin-1-yl] benzamide], for which, in test [1], the Emax was determined as 0% and the “LXR alpha IP (nM)” value is “NO IP”. Also, in test [2], the Emax is 60% and the EC50 was determined as 50 nM.
As for `CN(C)C(=O)c1ccc(N2CCC(OC3CCN(C(=O)[C@](O)(c4ccccc4)C(F)(F)F)CC3)CC2)cc1Cl` [Example 2-11, 2-chloro-N,N-dimethyl-4-[4-({1-[(2R)-3,3,3-trifluoro-2-hydroxy-2-phenylpropanoyl]piperidin-4-yl}oxy)piperidin-1-yl]benzamide], in test [1], the “LXR alpha Activity @ max dose (%)” value was determined as 33% and the EC50 was determined as 1110 nM. In addition, the Emax in test [2] turned out to be 83%.
Consider `CN(C)C(=O)c1ccc(N2CCC(CC3CCN(C(=O)[C@](O)(c4ccccc4)C(F)(F)F)CC3)CC2)cc1Cl` [Example 2-12, 2-chloro-N,N-dimethyl-4-[4-({1-[(2R)-3,3,3-trifluoro-2-hydroxy-2-phenylpropanoyl]piperidin-4-yl}methyl)piperidin-1-yl]benzamide], for which the Emax was determined as 25% in test [1] and 79% in test [2].
Consider `CN(C)C(=O)c1ccc(N2CCC(CC3CCN(C(=O)[C@](O)(c4ccccc4)C(F)(F)C(F)(F)F)CC3)CC2)cc1Cl` [Example 2-13, 2-chloro-N,N-dimethyl-4-[4-({1-[(2R)-3,3,4,4,4-pentafluoro-2-hydroxy-2-phenylbutanoyl]piperidin-4-yl}methyl)piperidin-1-yl]benzamide], for which, in test [1], the “LXR alpha Activity @ max dose (%)” value worked out at 56% and the EC50 came to 177 nM. The “LXR beta Activity @ max dose (%)” value in test [2] came to 119%.
Take `CN(C)C(=O)c1ccc(N2CCC(CC3CCN(C(=O)[C@](O)(c4ccccc4)C(F)(F)C(F)(F)F)CC3)CC2)cc1Cl` [Example 2-14, 2-chloro-N,N-dimethyl-4-[4-({1-[(2R)-3,3,4,4,4-pentafluoro-2-hydroxy-2-phenylbutanoyl]piperidin-4-yl}methyl)piperidin-1-yl]benzamide]: in test [1], the “LXR alpha Activity @ max dose (%)” value is listed as 14% and the “LXR alpha IP (nM)” value is reported as “NO IP”. The “LXR beta Activity @ max dose (%)” value in test [2] is recorded as 89%.
Regarding `CN(C)C(=O)c1ccc(N2CCC(CC3CCN(C(=O)C(O)(c4ccc(Cl)cc4)C(F)(F)F)CC3)CC2)cc1Cl` (centres unmarked) [Example 2-15, 2-chloro-4-[4-({1-[2-(4-chlorophenyl)-3,3,3-trifluoro-2-hydroxy-propanoyl]piperidin-4-yl}methyl)piperidin-1-yl]-N,N-dimethyl-benzamide], in test [1], the Emax turned out to be 0% and the “LXR alpha IP (nM)” value is recorded as “NO IP”. Further, in test [2], the Emax stood at 26% and the EC50 is 298 nM.
`CN(C)C(=O)c1ccc(N2CCC(CC3CCN(C(=O)C(O)(c4ccc(C(F)(F)F)cc4)C(F)(F)F)CC3)CC2)cc1Cl` (centres unmarked) [Example 2-16, 2-chloro-N,N-dimethyl-4-{4-[(1-{3,3,3-trifluoro-2-hydroxy-2-[4-(trifluoromethyl)phenyl]propanoyl}piperidin-4-yl)methyl]piperidin-1-yl} benzamide]: in test [1], the Emax was determined as 0% and the “LXR alpha IP (nM)” value is listed as “NO IP”. In test [2], the Emax was 15% and the EC50 came out at 598 nM.
Consider `CN(C)C(=O)c1ccc(N2CCC(CC3CCN(C(=O)C(O)(c4cccc(Cl)c4)C(F)(F)F)CC3)CC2)cc1Cl` (centres unmarked) [Example 2-17, 2-chloro-4-[4-({1-[2-(3-chlorophenyl)-3,3,3-trifluoro-2-hydroxy-propanoyl]piperidin-4-yl}methyl)piperidin-1-yl]-N,N-dimethyl-benzamide], for which, in test [1], the Emax amounted to 24% and the EC50 came out at 140 nM. Also, in test [2], the Emax worked out at 63% and the EC50 worked out at 11 nM.
`CN(C)C(=O)c1ccc(N2CCC(CC3CCN(C(=O)C4(c5ccccc5)CCC4)CC3)CC2)cc1Cl` [Example 2-18, 2-chloro-N,N-dimethyl-4-[4-({1-[(1-phenylcyclobutyl)carbonyl]piperidin-4-yl}methyl)piperidin-1-yl]benzamide]: in test [1], the Emax worked out at 6% and the “LXR alpha IP (nM)” value was “NO IP”. In test [2], the Emax turned out to be 46% and the EC50 was 151 nM.
For `CN(C)C(=O)c1ccc(N2CCC(OC3CCN(C(=O)C4(C(F)(F)F)CCCCC4)CC3)CC2)cc1Cl` [Example 2-19, 2-chloro-N,N-dimethyl-4-{4-[(1-{[1-(trifluoromethyl)cyclohexyl]carbonyl}piperidin-4-yl)oxy]piperidin-1-yl}benzamide], in test [1], the Emax was determined as 23% and the EC50 is 1810 nM. Also, in test [2], the Emax was 75% and the EC50 is 206 nM.
As to `CO[C@](C(=O)N1CCC(OC2CCN(c3ccc(C(=O)N(C)C)c(Cl)c3)CC2)CC1)(c1ccccc1)C(F)(F)F` [Example 2-20, 2-chloro-N,N-dimethyl-4-[4-({1-[(2S)-3,3,3-trifluoro-2-methoxy-2-phenylpropanoyl]piperidin-4-yl}oxy)piperidin-1-yl]benzamide], in test [1], the Emax was 4% and the “LXR alpha IP (nM)” value is “NO IP”. In addition, in test [2], the Emax stood at 81% and the EC50 was determined as 335 nM.
As for `CN(C)C(=O)c1ccc(N2CCC(OC3CCN(C(=O)[C@](O)(c4ccccc4)C(F)(F)F)CC3)CC2)cc1Cl` [Example 2-21, 2-chloro-N,N-dimethyl-4-[4-({1-[(2R)-3,3,3-trifluoro-2-hydroxy-2-phenylpropanoyl]piperidin-4-yl}oxy)piperidin-1-yl]benzamide], in test [1], the “LXR alpha Activity @ max dose (%)” value stood at 0% and the “LXR alpha IP (nM)” value is listed as “NO IP”. Moreover, the “LXR beta Activity @ max dose (%)” value in test [2] was determined as 65%.
Turning to `CN(C)C(=O)c1ccc(N2CCC(OC3CCN(C(=O)[C@](O)(c4ccccc4)C(F)(F)C(F)(F)F)CC3)CC2)cc1Cl` [Example 2-22, 2-chloro-N,N-dimethyl-4-[4-({1-[(2R)-3,3,4,4,4-pentafluoro-2-hydroxy-2-phenylbutanoyl]piperidin-4-yl}oxy)piperidin-1-yl]benzamide], the figures for the Emax in test [1] and in test [2] were 51% and 131%, respectively. In addition, the EC50 came out at 900 nM in test [1] and 21 nM in test [2].
Regarding `CN(C)C(=O)c1ccc(N2CCC(OC3CCN(C(=O)C(O)(c4ccc(Cl)cc4)C(F)(F)F)CC3)CC2)cc1Cl` (centres unmarked) [Example 2-23, 2-chloro-4-[4-({1-[2-(4-chlorophenyl)-3,3,3-trifluoro-2-hydroxy-propanoyl]piperidin-4-yl}oxy)piperidin-1-yl]-N,N-dimethyl-benzamide], in test [1], the Emax amounted to 0% and the “LXR alpha IP (nM)” value was “NO IP”. Further, in test [2], the Emax was 51% and the EC50 stood at 513 nM.
With `CN(C)C(=O)c1ccc(N2CCC(OC3CCN(C(=O)C(O)(c4cccc(Cl)c4)C(F)(F)F)CC3)CC2)cc1Cl` (centres unmarked) [Example 2-24, 2-chloro-4-[4-({1-[2-(3-chlorophenyl)-3,3,3-trifluoro-2-hydroxy-propanoyl]piperidin-4-yl}oxy)piperidin-1-yl]-N,N-dimethyl-benzamide], in test [1], the Emax is 37% and the EC50 amounted to 465 nM. Besides, in test [2], the Emax worked out at 99% and the EC50 was 14 nM.
For the compound `CN(C)C(=O)c1ccc(N2CCC(OC3CCN(C(=O)C(O)(c4cccc(C(F)(F)F)c4)C(F)(F)F)CC3)CC2)cc1Cl` (centres unmarked) [Example 2-25, 2-chloro-N,N-dimethyl-4-{4-[(1-{3,3,3-trifluoro-2-hydroxy-2-[3-(trifluoromethyl)phenyl]propanoyl}piperidin-4-yl)oxy]piperidin-1-yl}benzamide], the results for the Emax in test [1] and in test [2] were 26% and 89%, respectively. The EC50 in test [1] came to 695 nM; in test [2] it was 28 nM.
Regarding `COc1cccc(C(O)(C(=O)N2CCC(OC3CCN(c4ccc(C(=O)N(C)C)c(Cl)c4)CC3)CC2)C(F)(F)F)c1` (centres unmarked) [Example 2-26, 2-chloro-N,N-dimethyl-4-[4-({1-[3,3,3-trifluoro-2-hydroxy-2-(3-methoxyphenyl)propanoyl]piperidin-4-yl}oxy)piperidin-1-yl]benzamide], in test [1], the Emax was 0% and the “LXR alpha IP (nM)” value is reported as “NO IP”. For the same compound, in test [2], the Emax was determined as 68% and the EC50 turned out to be 23 nM.
